Assay results: ChEMBL document CHEMBL3991601, “The target landscape of clinical kinase drugs” (Science, 2017)
Active and inactive are the calls of the source. Rule as the data show it, for most assays here: actives have a measured Kd and inactives only a lower limit.

Tests used:
[1] = biological target: T1, Peroxisomal acyl-coenzyme A oxidase 3 (Homo sapiens, UniProt O15254)
T1 sequence (O15254 whole entry): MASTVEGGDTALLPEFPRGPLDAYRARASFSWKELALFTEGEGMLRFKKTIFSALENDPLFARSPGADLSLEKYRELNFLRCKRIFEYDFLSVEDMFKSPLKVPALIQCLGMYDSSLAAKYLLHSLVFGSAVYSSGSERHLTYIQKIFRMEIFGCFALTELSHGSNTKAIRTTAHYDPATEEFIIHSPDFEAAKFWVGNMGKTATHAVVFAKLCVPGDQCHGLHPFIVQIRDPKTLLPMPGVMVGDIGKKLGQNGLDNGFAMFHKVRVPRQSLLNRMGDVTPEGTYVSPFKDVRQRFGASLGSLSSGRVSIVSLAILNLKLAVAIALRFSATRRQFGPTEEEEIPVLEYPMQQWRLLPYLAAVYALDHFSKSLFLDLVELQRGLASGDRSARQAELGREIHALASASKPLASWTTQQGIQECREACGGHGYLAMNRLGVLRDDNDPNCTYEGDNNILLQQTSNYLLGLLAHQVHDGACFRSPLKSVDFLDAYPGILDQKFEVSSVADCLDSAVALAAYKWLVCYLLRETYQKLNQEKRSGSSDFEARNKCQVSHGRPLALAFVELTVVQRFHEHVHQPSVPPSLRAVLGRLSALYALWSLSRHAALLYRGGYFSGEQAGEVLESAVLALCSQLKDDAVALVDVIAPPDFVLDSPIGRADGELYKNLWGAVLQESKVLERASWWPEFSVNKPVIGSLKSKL

Adenosine kinase = Adenosine kinase (Homo sapiens, UniProt P55263)
[2] = biological target: T2, Beta-adrenergic receptor kinase 1 (Homo sapiens, UniProt P25098)
T2 sequence (P25098 whole entry): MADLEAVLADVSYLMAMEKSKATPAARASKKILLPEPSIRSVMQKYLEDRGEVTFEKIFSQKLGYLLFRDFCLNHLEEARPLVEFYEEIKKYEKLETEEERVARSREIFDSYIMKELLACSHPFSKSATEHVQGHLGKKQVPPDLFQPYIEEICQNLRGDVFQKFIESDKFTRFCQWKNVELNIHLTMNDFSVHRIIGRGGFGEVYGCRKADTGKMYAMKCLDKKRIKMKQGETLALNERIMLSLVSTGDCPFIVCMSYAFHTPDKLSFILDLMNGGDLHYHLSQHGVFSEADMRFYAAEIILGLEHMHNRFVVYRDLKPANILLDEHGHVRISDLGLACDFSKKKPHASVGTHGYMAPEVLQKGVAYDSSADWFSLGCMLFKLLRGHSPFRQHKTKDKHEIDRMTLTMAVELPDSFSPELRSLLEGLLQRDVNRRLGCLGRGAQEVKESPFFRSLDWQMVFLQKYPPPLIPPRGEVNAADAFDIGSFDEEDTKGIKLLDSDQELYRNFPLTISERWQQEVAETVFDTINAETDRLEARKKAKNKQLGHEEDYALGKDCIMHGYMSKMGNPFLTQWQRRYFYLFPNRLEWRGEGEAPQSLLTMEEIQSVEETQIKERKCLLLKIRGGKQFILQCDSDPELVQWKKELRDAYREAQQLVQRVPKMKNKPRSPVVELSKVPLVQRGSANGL

[3] = biological target: RAC-gamma serine/threonine-protein kinase (Homo sapiens, UniProt Q9Y243)
[4] = biological target: BMP-2-inducible protein kinase (Homo sapiens, UniProt Q9NSY1)
BMP-2-inducible protein kinase, sequence (Q9NSY1 whole entry): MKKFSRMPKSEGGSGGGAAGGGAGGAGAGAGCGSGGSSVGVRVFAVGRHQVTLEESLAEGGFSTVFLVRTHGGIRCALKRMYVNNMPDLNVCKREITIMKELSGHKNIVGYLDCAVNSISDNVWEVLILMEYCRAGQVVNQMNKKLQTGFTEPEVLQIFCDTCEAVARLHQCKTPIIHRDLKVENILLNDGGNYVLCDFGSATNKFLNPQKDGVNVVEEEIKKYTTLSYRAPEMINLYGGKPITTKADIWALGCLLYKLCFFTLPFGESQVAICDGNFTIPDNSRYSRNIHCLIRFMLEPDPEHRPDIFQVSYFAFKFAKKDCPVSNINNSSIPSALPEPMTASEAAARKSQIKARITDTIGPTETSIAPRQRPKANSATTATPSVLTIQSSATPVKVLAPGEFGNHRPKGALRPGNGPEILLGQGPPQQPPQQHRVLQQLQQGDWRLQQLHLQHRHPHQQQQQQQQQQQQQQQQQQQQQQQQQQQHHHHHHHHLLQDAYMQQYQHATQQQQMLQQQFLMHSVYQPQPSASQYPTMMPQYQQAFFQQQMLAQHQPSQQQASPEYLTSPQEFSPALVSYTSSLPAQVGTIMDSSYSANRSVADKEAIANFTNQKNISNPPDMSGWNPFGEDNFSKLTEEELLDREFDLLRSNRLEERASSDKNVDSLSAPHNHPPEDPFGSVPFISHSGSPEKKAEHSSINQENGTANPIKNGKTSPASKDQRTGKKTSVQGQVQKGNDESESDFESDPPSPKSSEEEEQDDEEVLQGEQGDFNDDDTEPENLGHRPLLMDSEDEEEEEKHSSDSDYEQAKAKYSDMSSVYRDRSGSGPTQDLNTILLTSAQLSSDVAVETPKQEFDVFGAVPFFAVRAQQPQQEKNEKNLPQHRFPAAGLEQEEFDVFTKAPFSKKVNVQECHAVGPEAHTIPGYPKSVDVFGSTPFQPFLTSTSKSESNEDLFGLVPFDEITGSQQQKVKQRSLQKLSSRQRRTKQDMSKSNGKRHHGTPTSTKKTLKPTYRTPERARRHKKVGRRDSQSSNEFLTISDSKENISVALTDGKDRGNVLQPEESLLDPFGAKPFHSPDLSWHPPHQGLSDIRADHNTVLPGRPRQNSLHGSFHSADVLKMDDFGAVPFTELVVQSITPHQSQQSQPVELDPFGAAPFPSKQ

[5] = biological target: Calcium/calmodulin-dependent protein kinase kinase 2 (Homo sapiens, UniProt Q96RR4)
[6] = biological target: Cyclin-dependent kinase 3 (Homo sapiens, UniProt Q00526)
Cyclin-dependent kinase 3, sequence (Q00526 whole entry): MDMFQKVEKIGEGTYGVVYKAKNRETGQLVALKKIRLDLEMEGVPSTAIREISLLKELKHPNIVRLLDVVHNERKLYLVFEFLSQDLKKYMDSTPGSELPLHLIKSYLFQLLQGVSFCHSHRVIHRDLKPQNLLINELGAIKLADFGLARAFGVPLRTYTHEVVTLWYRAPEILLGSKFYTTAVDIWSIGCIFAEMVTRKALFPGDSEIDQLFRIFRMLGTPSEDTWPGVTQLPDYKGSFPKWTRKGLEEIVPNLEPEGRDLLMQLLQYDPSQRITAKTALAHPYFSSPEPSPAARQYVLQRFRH

[7] = biological target: Cyclin-dependent kinase 6 (Homo sapiens, UniProt Q00534)
Ephrin type-A receptor 2 = Ephrin type-A receptor 2 (Homo sapiens, UniProt P29317)
Ephrin type-A receptor 2, sequence (P29317 whole entry): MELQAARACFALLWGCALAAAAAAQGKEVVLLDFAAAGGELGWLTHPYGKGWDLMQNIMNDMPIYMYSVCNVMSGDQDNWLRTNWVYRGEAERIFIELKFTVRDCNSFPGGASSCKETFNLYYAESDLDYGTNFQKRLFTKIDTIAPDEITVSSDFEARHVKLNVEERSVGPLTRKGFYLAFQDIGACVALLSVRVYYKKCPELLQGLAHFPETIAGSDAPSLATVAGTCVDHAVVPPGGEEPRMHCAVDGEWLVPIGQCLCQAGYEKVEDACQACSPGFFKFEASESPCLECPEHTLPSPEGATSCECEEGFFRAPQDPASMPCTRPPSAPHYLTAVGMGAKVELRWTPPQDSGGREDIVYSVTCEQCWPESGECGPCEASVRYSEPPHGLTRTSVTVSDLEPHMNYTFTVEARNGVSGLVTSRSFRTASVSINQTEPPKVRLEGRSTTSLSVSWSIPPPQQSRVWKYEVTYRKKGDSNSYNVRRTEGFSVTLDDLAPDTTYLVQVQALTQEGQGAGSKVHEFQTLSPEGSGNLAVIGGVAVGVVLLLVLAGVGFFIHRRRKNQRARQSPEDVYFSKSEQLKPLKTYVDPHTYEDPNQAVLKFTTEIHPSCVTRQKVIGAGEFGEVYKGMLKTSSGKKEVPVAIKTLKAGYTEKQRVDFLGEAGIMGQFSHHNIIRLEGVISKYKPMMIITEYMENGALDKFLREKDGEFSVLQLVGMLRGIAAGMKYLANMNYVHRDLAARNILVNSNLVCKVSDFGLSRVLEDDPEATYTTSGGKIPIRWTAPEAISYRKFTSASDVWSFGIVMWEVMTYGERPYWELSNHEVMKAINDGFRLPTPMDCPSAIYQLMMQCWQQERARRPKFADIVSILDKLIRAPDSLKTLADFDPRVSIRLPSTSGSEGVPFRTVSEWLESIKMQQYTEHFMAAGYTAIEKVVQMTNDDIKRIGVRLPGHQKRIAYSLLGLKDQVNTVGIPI

Ephrin type-A receptor 7 = Ephrin type-A receptor 7 (Homo sapiens, UniProt Q15375)
Insulin receptor = Insulin receptor (Homo sapiens, UniProt P06213)
[8] = biological target: Mitogen-activated protein kinase kinase kinase 4 (Homo sapiens, UniProt Q9Y6R4)
[9] = biological target: Myosin light chain kinase, smooth muscle (Homo sapiens, UniProt Q15746)
[10] = biological target: Receptor-interacting serine/threonine-protein kinase 3 (Homo sapiens, UniProt Q9Y572)
Receptor-interacting serine/threonine-protein kinase 3, sequence (Q9Y572 whole entry): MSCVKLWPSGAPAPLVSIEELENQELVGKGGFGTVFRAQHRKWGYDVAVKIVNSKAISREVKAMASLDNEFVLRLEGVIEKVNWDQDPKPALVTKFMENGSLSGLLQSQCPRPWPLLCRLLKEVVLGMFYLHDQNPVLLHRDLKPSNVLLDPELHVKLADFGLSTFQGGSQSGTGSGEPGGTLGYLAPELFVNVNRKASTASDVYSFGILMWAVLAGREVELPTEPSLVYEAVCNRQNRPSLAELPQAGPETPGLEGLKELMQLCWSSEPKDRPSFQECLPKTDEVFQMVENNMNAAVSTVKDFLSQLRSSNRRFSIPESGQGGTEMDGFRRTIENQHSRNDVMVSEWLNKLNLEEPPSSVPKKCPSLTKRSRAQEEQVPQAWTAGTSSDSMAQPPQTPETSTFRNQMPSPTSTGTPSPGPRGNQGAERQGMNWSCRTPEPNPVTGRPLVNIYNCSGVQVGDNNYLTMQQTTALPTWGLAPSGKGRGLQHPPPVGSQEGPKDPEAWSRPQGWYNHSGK

[11] = biological target: Ribosomal protein S6 kinase alpha-1 (Homo sapiens, UniProt Q15418)
[12] = biological target: U5 small nuclear ribonucleoprotein 200 kDa helicase (Homo sapiens, UniProt O75643)
U5 small nuclear ribonucleoprotein 200 kDa helicase, sequence (O75643 whole entry): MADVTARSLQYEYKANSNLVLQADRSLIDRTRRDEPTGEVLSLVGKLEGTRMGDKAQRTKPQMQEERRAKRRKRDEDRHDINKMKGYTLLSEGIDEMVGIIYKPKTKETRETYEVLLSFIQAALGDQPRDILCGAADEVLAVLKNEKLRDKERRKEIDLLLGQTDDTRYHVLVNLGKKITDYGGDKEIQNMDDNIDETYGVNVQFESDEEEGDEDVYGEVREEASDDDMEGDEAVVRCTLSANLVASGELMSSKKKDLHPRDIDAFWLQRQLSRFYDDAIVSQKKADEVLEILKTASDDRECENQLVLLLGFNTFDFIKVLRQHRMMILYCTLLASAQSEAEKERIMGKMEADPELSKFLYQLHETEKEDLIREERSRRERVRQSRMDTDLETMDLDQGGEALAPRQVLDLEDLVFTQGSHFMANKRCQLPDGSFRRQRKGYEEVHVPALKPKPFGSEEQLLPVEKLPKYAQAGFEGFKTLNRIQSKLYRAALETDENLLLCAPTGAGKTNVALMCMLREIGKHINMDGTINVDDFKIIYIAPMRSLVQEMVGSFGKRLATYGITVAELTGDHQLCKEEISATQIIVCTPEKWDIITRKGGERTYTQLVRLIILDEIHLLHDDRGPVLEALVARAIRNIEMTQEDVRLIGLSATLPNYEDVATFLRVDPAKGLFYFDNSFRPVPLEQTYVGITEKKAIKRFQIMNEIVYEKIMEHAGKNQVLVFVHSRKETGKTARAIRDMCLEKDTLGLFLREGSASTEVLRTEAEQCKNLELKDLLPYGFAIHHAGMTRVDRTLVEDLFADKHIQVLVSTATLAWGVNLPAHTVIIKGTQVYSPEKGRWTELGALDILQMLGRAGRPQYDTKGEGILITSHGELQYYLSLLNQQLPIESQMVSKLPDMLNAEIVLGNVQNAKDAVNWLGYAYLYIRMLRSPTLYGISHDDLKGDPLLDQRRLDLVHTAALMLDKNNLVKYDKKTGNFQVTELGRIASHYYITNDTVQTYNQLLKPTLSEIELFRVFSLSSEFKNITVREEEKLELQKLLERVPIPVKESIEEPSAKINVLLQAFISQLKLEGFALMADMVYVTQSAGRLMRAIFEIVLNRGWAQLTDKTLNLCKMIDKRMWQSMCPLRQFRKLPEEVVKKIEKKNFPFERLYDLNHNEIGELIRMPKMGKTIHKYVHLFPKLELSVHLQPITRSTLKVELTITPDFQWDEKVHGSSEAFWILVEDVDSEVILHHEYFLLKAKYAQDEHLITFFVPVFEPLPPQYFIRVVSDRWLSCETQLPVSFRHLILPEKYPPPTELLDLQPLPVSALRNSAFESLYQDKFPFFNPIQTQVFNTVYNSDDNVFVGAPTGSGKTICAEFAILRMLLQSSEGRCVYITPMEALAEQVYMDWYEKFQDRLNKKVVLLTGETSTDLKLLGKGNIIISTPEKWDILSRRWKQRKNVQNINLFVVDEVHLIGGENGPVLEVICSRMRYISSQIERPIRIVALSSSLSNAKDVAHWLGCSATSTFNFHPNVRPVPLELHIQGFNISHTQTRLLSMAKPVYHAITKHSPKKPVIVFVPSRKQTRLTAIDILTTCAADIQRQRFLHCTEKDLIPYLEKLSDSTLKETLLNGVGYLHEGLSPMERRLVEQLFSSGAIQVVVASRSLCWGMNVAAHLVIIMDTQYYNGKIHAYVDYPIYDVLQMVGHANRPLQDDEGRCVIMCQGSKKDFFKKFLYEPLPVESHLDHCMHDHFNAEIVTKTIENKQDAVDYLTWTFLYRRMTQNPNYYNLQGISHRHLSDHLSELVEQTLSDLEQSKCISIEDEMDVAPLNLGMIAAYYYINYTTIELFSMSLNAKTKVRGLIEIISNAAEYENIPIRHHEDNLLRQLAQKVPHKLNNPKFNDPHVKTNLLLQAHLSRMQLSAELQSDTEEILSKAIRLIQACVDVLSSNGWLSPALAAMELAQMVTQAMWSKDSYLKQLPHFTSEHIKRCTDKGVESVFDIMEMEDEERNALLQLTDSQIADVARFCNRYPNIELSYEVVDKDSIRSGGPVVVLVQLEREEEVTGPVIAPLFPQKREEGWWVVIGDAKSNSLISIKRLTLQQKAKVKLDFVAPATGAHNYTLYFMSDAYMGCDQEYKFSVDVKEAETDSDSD

[13] = biological target: T3, Tyrosine-protein kinase Tec (Homo sapiens, UniProt P42680)
T3 sequence (P42680 whole entry): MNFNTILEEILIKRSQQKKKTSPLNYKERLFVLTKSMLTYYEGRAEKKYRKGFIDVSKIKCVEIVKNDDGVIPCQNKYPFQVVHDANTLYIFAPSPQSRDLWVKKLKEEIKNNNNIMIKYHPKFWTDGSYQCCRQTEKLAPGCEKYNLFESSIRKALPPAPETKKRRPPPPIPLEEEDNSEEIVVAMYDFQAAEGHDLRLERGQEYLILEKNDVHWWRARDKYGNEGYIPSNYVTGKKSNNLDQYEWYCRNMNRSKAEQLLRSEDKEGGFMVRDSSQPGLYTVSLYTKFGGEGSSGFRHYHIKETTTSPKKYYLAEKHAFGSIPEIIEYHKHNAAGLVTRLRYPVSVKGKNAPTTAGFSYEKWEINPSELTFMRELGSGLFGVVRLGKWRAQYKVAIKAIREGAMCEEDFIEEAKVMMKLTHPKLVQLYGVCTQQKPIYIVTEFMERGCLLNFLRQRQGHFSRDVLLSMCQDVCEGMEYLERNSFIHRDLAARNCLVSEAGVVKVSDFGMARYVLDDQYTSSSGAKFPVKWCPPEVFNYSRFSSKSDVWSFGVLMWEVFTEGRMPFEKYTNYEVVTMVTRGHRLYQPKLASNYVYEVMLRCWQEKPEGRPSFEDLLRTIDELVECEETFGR
Also: in the data inactive means no Kd found up to 30 µM.

Kd [1]	Kd (Adenosine kinase)	Kd [2]	Kd [3]	Kd [4]	Kd [5]	Kd [6]	Kd [7]	Kd (Ephrin type-A receptor 2)	Kd (Ephrin type-A receptor 7)	Kd (Insulin receptor)	Kd [8]	Kd [9]	Kd [10]	Kd [11]	Kd [12]	Kd [13]	Compound
> 30 µM (inactive)	> 30 µM (inactive)	> 30 µM (inactive)	> 30 µM (inactive)	> 30 µM (inactive)	> 30 µM (inactive)	> 30 µM (inactive)	> 30 µM (inactive)	> 30 µM (inactive)	> 30 µM (inactive)	> 30 µM (inactive)	> 30 µM (inactive)	> 30 µM (inactive)	> 30 µM (inactive)	> 30 µM (inactive)	> 30 µM (inactive)	> 30 µM (inactive)	COc1ccc(S(=O)(=O)N(C(C)=O)c2ccccc2/C=C/c2cc[n+]([O-])cc2)cc1 [HMN-214]
> 30 µM (inactive)	> 30 µM (inactive)	> 30 µM (inactive)	> 30 µM (inactive)	> 30 µM (inactive)	> 30 µM (inactive)	> 30 µM (inactive)	> 30 µM (inactive)	> 30 µM (inactive)	> 30 µM (inactive)	> 30 µM (inactive)	> 30 µM (inactive)	> 30 µM (inactive)	> 30 µM (inactive)	> 30 µM (inactive)	> 30 µM (inactive)	> 30 µM (inactive)	CN(C[C@@H]1COCCO1)S(=O)(=O)Nc1ccc2ccc3ncc(-c4cnn(C)c4)cc3c(=O)c2c1 [MK-2461]
> 30 µM (inactive)	> 30 µM (inactive)	> 30 µM (inactive)	> 30 µM (inactive)	> 30 µM (inactive)	> 30 µM (inactive)	> 30 µM (inactive)	> 30 µM (inactive)	> 30 µM (inactive)	> 30 µM (inactive)	> 30 µM (inactive)	> 30 µM (inactive)	> 30 µM (inactive)	> 30 µM (inactive)	> 30 µM (inactive)	> 30 µM (inactive)	> 30 µM (inactive)	Cn1cc(-c2cnc3ccc4ccc(CS(=O)(=O)NCc5ccccn5)cc4c(=O)c3c2)cn1 [MK-8033]
> 30 µM (inactive)	> 30 µM (inactive)	> 30 µM (inactive)	> 30 µM (inactive)	> 30 µM (inactive)	> 30 µM (inactive)	> 30 µM (inactive)	> 30 µM (inactive)	> 30 µM (inactive)	> 30 µM (inactive)	> 30 µM (inactive)	> 30 µM (inactive)	> 30 µM (inactive)	> 30 µM (inactive)	> 30 µM (inactive)	> 30 µM (inactive)	> 30 µM (inactive)	FC(F)(F)c1ccc(/C=C/c2nc(COc3ccc(CCCCn4ccnn4)cc3)co2)cc1 [MUBRITINIB]
> 30 µM (inactive)	> 30 µM (inactive)	> 30 µM (inactive)	> 30 µM (inactive)	> 30 µM (inactive)	> 30 µM (inactive)	> 30 µM (inactive)	> 30 µM (inactive)	> 30 µM (inactive)	> 30 µM (inactive)	> 30 µM (inactive)	> 30 µM (inactive)	> 30 µM (inactive)	> 30 µM (inactive)	> 30 µM (inactive)	> 30 µM (inactive)	> 30 µM (inactive)	COc1ncc(-c2ccc3nccc(-c4ccnnc4)c3c2)cc1NS(=O)(=O)c1ccc(F)cc1F [OMIPALISIB]
> 30 µM (inactive)	> 30 µM (inactive)	22.5 µM (active)	> 30 µM (inactive)	2.54 µM (active)	2.86 µM (active)	63.6 µM (active)	> 30 µM (inactive)	> 30 µM (inactive)	> 30 µM (inactive)	> 30 µM (inactive)	> 30 µM (inactive)	> 30 µM (inactive)	> 30 µM (inactive)	0.82 µM (active)	> 30 µM (inactive)	1.23 µM (active)	Cc1nc(Nc2n[nH]c3c2CN(C(=O)N[C@H](CN(C)C)c2ccccc2)C3(C)C)c2sccc2n1 [PF-03758309]
> 30 µM (inactive)	> 30 µM (inactive)	> 30 µM (inactive)	> 30 µM (inactive)	> 30 µM (inactive)	> 30 µM (inactive)	> 30 µM (inactive)	> 30 µM (inactive)	> 30 µM (inactive)	> 30 µM (inactive)	> 30 µM (inactive)	> 30 µM (inactive)	> 30 µM (inactive)	> 30 µM (inactive)	> 30 µM (inactive)	> 30 µM (inactive)	> 30 µM (inactive)	Cc1cnc(NC(=O)Nc2cc(Br)c(C)cc2OC[C@@H]2CNCCO2)cn1 [RABUSERTIB]
> 30 µM (inactive)	> 30 µM (inactive)	> 30 µM (inactive)	> 30 µM (inactive)	0.013 µM	> 30 µM (inactive)	> 30 µM (inactive)	> 30 µM (inactive)	> 30 µM (inactive)	> 30 µM (inactive)	> 30 µM (inactive)	> 30 µM (inactive)	> 30 µM (inactive)	> 30 µM (inactive)	> 30 µM (inactive)	> 30 µM (inactive)	> 30 µM (inactive)	O=c1[nH]ccc2cc(OC3CCNCC3)ccc12 [SAR-407899 FREE BASE]

Compound	Kd [1]	Kd (Adenosine kinase)	Kd [2]	Kd [3]	Kd [4]	Kd [5]	Kd [6]	Kd [7]	Kd (Ephrin type-A receptor 2)	Kd (Ephrin type-A receptor 7)	Kd (Insulin receptor)	Kd [8]	Kd [9]	Kd [10]	Kd [11]	Kd [12]	Kd [13]
CCCCCCCCCCCCCCCCCCOP(=O)([O-])OC1CC[N+](C)(C)CC1 [PERIFOSINE]	> 30 µM (inactive)	> 30 µM (inactive)	> 30 µM (inactive)	> 30 µM (inactive)	> 30 µM (inactive)	> 30 µM (inactive)	> 30 µM (inactive)	> 30 µM (inactive)	> 30 µM (inactive)	> 30 µM (inactive)	> 30 µM (inactive)	> 30 µM (inactive)	> 30 µM (inactive)	> 30 µM (inactive)	> 30 µM (inactive)	> 30 µM (inactive)	> 30 µM (inactive)
